Source: ChEMBL document CHEMBL1127707, “The use of the GRID program in the 3-D QSAR analysis of a series of calcium-channel agonists” (J Med Chem, 1994)

assay: CMR value (relative to BAY K 8644); assay type: ADME

Row | CMR | SMILES
1 | 10.44 | COC(=O)c1c(C)[nH]c(C)c1C(=O)c1ccccc1[S+]([O-])c1ccccc1 (stereo unspecified)
2 | 10.9 | COC(=O)c1c(C)[nH]c(C)c1C(=O)c1ccccc1[S+]([O-])Cc1ccccc1 (stereo unspecified)
3 | 10.78 | COC(=O)c1c(C)[nH]c(C)c1C(=O)c1ccccc1Cc1ccccc1[N+](=O)[O-]
4 | 10.08 | COC(=O)c1c(C)[nH]c(C)c1C(=O)c1ccccc1Cc1ccc(F)cc1
5 | 9.96 | COC(=O)c1c(C)[nH]c(C)c1C(=O)c1ccccc1Nc1ccccc1
6 | 8.3 | COC(=O)c1c(C)[nH]c(C)c1C(=O)c1ccc([N+](=O)[O-])cc1Cl
7 | 7.58 | COC(=O)c1c(C)[nH]c(C)c1C(=O)c1ccccc1C
8 | 9.6 | COC(=O)c1c(C)[nH]c(C)c1C(=O)c1ccccc1-c1ccccc1
9 | 10.93 | COC(=O)c1c(C)[nH]c(C)c1C(=O)c1ccccc1S(=O)(=O)Cc1ccccc1
10 | 10.15 | COC(=O)c1c(C)[nH]c(C)c1C(=O)c1ccccc1CC1CCCCC1
11 | 7.58 | COC(=O)c1c(C)[nH]c(C)c1C(=O)c1ccccc1Cl
12 | 7.6 | COC(=O)c1c(C)[nH]c(C)c1C(=O)c1ccccc1C(F)(F)F
13 | 7.86 | COC(=O)c1c(C)[nH]c(C)c1C(=O)c1ccccc1Br

Second part, the molecule before the results:

Row | SMILES | CMR
14 | COC(=O)c1c(C)[nH]c(C)c1C(=O)c1ccccc1Oc1ccccc1 | 9.75
15 | COC(=O)c1c(C)[nH]c(C)c1C(=O)c1ccccc1Cc1ccc(N)cc1 | 10.43
16 | COC(=O)c1c(C)[nH]c(C)c1C(=O)c1ccccc1Nc1ccccn1 | 9.75
17 | COC(=O)c1c(C)[nH]c(C)c1C(=O)c1ccccc1Oc1ccc([N+](=O)[O-])cc1 | 10.47
18 | COC(=O)c1c(C)[nH]c(C)c1C(=O)c1ccccc1OCc1ccccc1 | 10.21
19 | COC(=O)c1c(C)[nH]c(C)c1C(=O)c1ccccc1SCc1ccccc1 | 10.87
20 | COC(=O)c1c(C)[nH]c(C)c1C(=O)c1ccc(C)cc1C | 8.01
21 | COC(=O)c1c(C)[nH]c(C)c1C(=O)c1ccc(F)cc1Cc1ccc(F)cc1 | 10.09
22 | COC(=O)c1c(C)[nH]c(C)c1C(=O)c1ccccc1NC1CCCCC1 | 10.06
23 | COC(=O)c1c(C)[nH]c(C)c1C(=O)c1ccc(F)cc1Br | 7.877
24 | COC(=O)c1c(C)[nH]c(C)c1C(=O)c1ccccc1OS(=O)(=O)c1ccc(C)cc1 | 10.62
25 | COC(=O)c1c(C)[nH]c(C)c1C(=O)c1ccccc1Sc1ccc([N+](=O)[O-])cc1 | 11.13
26 | COC(=O)c1c(C)[nH]c(C)c1C(=O)c1ccccc1Cc1ccc([N+](=O)[O-])cc1 | 10.79
27 | COC(=O)c1c(C)[nH]c(C)c1C(=O)c1ccccc1F | 7.1
28 | COC(=O)c1c(C)[nH]c(C)c1C(=O)c1ccccc1I | 8.39
29 | COC(=O)c1c(C)[nH]c(C)c1C(=O)c1ccccc1CCc1ccccc1 | 10.52
30 | COC(=O)c1c(C)[nH]c(C)c1C(=O)c1ccccc1C(=O)Oc1ccccc1O | 10.4
31 | COC(=O)c1c(C)[nH]c(C)c1C(=O)c1ccccc1Sc1ccccc1 | 10.4
32 | COC(=O)c1c(C)[nH]c(C)c1C(=O)c1ccc(F)cc1Cc1ccccc1 | 10.08
33 | COC(=O)c1c(C)[nH]c(C)c1C(=O)c1ccc(Cl)cc1Cl | 8.07
34 | COC(=O)c1c(C)[nH]c(C)c1C(=O)c1ccccc1 | 7.08
35 | COC(=O)c1c(C)[nH]c(C)c1C(=O)c1ccccc1OC | 7.7
36 | COC(=O)c1c(C)[nH]c(C)c1C(=O)c1ccccc1Cc1ccccc1 | 10.06
